The source of these data is ChEMBL document CHEMBL1126410, “Synthesis and activity in cognition-related tests of novel 2-benzoylamino-4-oxoquinazolines” (1992).

The source made the active and inactive calls. The calls are words filed in the database; no cut-off is given here.

Test [1] has as its system Mus musculus. The test is described as follows: Evaluated for improvement of anoxic amnesia in mice after ip administration of 100 mg/kg dose. Format: functional. As to conditions: route intraperitoneal.
Test [2] has as its system Mus musculus. The test is described as follows: Evaluated for improvement of anoxic amnesia in mice after ip administration of 10 mg/kg dose(218 delay seconds); -19-248. Format: functional. As to conditions: route intraperitoneal.
Test [3] concerns Mus musculus. The test is described as follows: Evaluated for improvement of anoxic amnesia in mice after ip administration of 25 mg/kg dose(341 delay seconds); 79-131. In kind it is functional. As to conditions: route intraperitoneal.
The subject of test [4] is Mus musculus. The experiment in a line: The compound was evaluated for hypoxic survival activity in mice after intraperitoneal administration at 100 mg/kg dose; 75-80. In kind it is functional. As to conditions: ip.
In test [5] the test system is Rattus norvegicus. The experiment in a line: Evaluated for improvement of anoxic amnesia in aged rat after ip administration of 10 mg/kg dose(529 delay seconds). In kind it is functional. As to conditions: route intraperitoneal.
For test [6], the system named is Rattus norvegicus. The test is described as follows: Evaluated for improvement of anoxic amnesia in aged rat after ip administration of 25 mg/kg (300 delay seconds). Format: functional. As to conditions: route intraperitoneal.
Test [7] concerns Mus musculus. The experiment in a line: The compound was evaluated for hypoxic survival activity in mice after intraperitoneal administration at 10-100 mg/kg dose; Inactive. Format: functional, organism-based.
Test [8] deals with Mus musculus. The test is described as follows: The compound was evaluated for hypoxic survival activity in mice after intraperitoneal administration at 10 mg/kg dose; 50-75. Particulars: ip. In kind it is functional.
Test [9] deals with Mus musculus. The experiment in a line: The compound was evaluated for hypoxic survival activity in mice after intraperitoneal administration at 100 mg/kg dose; 50-90. In kind it is functional. Particulars: ip.
Test [10] deals with Mus musculus. The experiment in a line: Evaluated for improvement of anoxic amnesia in mice after ip administration of 50 mg/kg dose. As to conditions: route intraperitoneal. Format: functional.
Test [11] relates to Mus musculus. The test is described as follows: The compound was evaluated for hypoxic survival activity in mice after intraperitoneal administration at 100 mg/kg dose; 45-65. In kind it is functional. As to conditions: ip.
Test [12] has as its system Mus musculus. The experiment in a line: The compound was evaluated for hypoxic survival activity in mice after intraperitoneal administration at 0.125 mg/kg dose; 60-80. As to conditions: ip. In kind it is functional.
Test [13] deals with Mus musculus. The experiment in a line: The compound was evaluated for hypoxic survival activity in mice after intraperitoneal administration at 10 mg/kg dose; 30-80. In kind it is functional. Particulars: ip.
The subject of test [14] is Mus musculus. The test is described as follows: The compound was evaluated for hypoxic survival activity in mice after intraperitoneal administration at 100 mg/kg dose; 65-80. In kind it is functional. As to conditions: ip.
The test system of test [15] is Mus musculus. The experiment in a line: The compound was evaluated for hypoxic survival activity in mice after intraperitoneal administration at 100 mg/kg dose. Format: functional. As to conditions: ip.
Test [16] has as its system Mus musculus. The test is described as follows: The compound was evaluated for hypoxic survival activity in mice after intraperitoneal administration at 50 mg/kg dose; 80-90. Format: functional. Particulars: ip.
In test [17] the test system is Mus musculus. The experiment in a line: The compound was evaluated for hypoxic survival activity in mice after intraperitoneal administration at 100 mg/kg dose; 80-85. In kind it is functional. As to conditions: ip.
For test [18], the system named is Mus musculus. The test is described as follows: The compound was evaluated for hypoxic survival activity in mice after intraperitoneal administration at 100 mg/kg dose; 55-55. In kind it is functional. Particulars: ip.
For test [19], the system named is Mus musculus. The experiment in a line: The compound was evaluated for hypoxic survival activity in mice after intraperitoneal administration at 100 mg/kg dose; 50-95. In kind it is functional. As to conditions: ip.

For the compound `Cn1c(NC(=O)c2ccccc2)nc2ccccc2c1=O`, the Improvement with Mus musculus [1] came out at 78%; in the test with Mus musculus [2] it was 94%; in the test with Mus musculus [3], 105%; in the test with Rattus norvegicus [5], 1369%; in the test with Rattus norvegicus [6] it was 733%. Moreover, the survival at 100 mg/kg with Mus musculus [4] came to 78%.
`Cc1cccc(C(=O)Nc2nc(=O)c3ccccc3n2C)c1`: the Survival result in the test with Mus musculus [7] was “inactive”.
Take `COc1ccc(C(=O)Nc2nc(O)c3ccccc3n2)cc1`: the survival at 10 mg/kg in the test on Mus musculus [8] was found to be 63%.
As for `COc1cc2nc(NC(=O)c3ccccc3)nc(O)c2cc1OC`, the survival at 100 mg/kg in the test on Mus musculus [9] was 70%.
In turn, `Cc1ccc(C(=O)Nc2nc(=O)c3ccccc3n2C)cc1` gave an Improvement in the test on Mus musculus [10] of 224%. In addition, in the test with Mus musculus [11], the survival at 100 mg/kg turned out to be 55%.
`CNC(=O)Oc1ccc2c(c1)[C@]1(C)CCN(C)[C@@H]1N2C` [PHYSOSTIGMINE] came in with a survival at 0.125 mg/kg in the test with Mus musculus [12] of 60%.
In turn, `O=C(Nc1nc(O)c2ccccc2n1)c1ccc(Cl)cc1` registered a survival at 10 mg/kg with Mus musculus [13] of 55%.
In the case of `O=C(Nc1nc(O)c2ccccc2n1)c1ccccc1`, the Improvement in the test with Mus musculus [10] came to 130%. In addition, in the test on Mus musculus [14], the survival at 100 mg/kg is 73%.
For `CC(C)n1c(NC(=O)c2ccccc2)nc2ccccc2c1=O`, in the test with Mus musculus [15], the survival at 100 mg/kg stood at 55%.
`Cc1ccc(C(=O)Nc2nc3ccccc3c(=O)n2C)cc1`: in the test on Mus musculus [10], the Improvement worked out at 116%. Also, in the test on Mus musculus [16], the survival at 50 mg/kg was found to be 85%.
Compound `Cc1cccc(C(=O)Nc2nc(O)c3ccccc3n2)c1` came in with a survival at 100 mg/kg in the test on Mus musculus [17] of 83%.
For the compound `Cc1ccc(C(=O)Nc2nc(O)c3ccccc3n2)cc1`, the survival at 10 mg/kg with Mus musculus [8] amounted to 63%.
As for `Cc1ccc2nc(NC(=O)c3ccccc3)nc(O)c2c1`, in the test on Mus musculus [18], the survival at 100 mg/kg was determined as 55%.
In turn, `Cn1c(NC(=O)c2ccccc2)nc(=O)c2ccccc21` came in with a survival at 100 mg/kg with Mus musculus [19] of 70%.
